Source: PubChem BioAssay (NCI)
“And” between values parts separate entries of the source, which are not always exact repeats. Equal entries are not always repeated.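 Assay format: 96-well plates, 48-hour exposure. GI50 is the concentration that inhibits growth by half. TGI: total growth inhibition.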

What was measured:
Test in all cases: NCI tumour cell line growth inhibition, 48 h
SK-MEL-28 melanoma = system: SK-MEL-28 melanoma
DU-145 prostate = system: DU-145 prostate
U251 CNS = system: U251 CNS
SR leukemia = system: SR leukemia
UACC-257 melanoma = system: UACC-257 melanoma
SK-OV-3 ovarian = system: SK-OV-3 ovarian
DMS 114 small cell lung = system: DMS 114 small cell lung
SNB-78 CNS = system: SNB-78 CNS
UO-31 renal = system: UO-31 renal
MCF7 breast = system: MCF7 breast
CAKI-1 renal = system: CAKI-1 renal
NCI-H522 lung = system: NCI-H522 lung
MDA-MB-231 breast = system: MDA-MB-231 breast
CCRF-CEM leukemia = system: CCRF-CEM leukemia
MALME-3M melanoma = system: MALME-3M melanoma
BT-549 breast = system: BT-549 breast
UACC-62 melanoma = system: UACC-62 melanoma
EKVX NSCLC = system: EKVX NSCLC
COLO 205 colon = system: COLO 205 colon
OVCAR-5 ovarian = system: OVCAR-5 ovarian
HT29 colon = system: HT29 colon
T-47D breast = system: T-47D breast
HCT-15 colon = system: HCT-15 colon
M14 melanoma = system: M14 melanoma
NCI-H460 lung = system: NCI-H460 lung
KM20L2 colon = system: KM20L2 colon
LOX IMVI melanoma = system: LOX IMVI melanoma
IGROV1 ovarian = system: IGROV1 ovarian
MDA-N = system: MDA-N
P388 leukemia = system: P388 leukemia
OVCAR-4 ovarian = system: OVCAR-4 ovarian
PC-3 prostate = system: PC-3 prostate
ACHN renal = system: ACHN renal
SW-620 colon = system: SW-620 colon
NCI-H226 lung = system: NCI-H226 lung
A498 renal = system: A498 renal
DLD-1 colon = system: DLD-1 colon
HCT-116 colon = system: HCT-116 colon
SN12K1 renal = system: SN12K1 renal
M19-MEL melanoma = system: M19-MEL melanoma
DMS 273 small cell lung = system: DMS 273 small cell lung
786-0 renal = system: 786-0 renal
SF-268 CNS = system: SF-268 CNS
SF-295 CNS = system: SF-295 CNS
KM12 colon = system: KM12 colon
RXF 393 renal = system: RXF 393 renal
SK-MEL-2 melanoma = system: SK-MEL-2 melanoma
TK-10 renal = system: TK-10 renal
NCI/ADR-RES ovarian = system: NCI/ADR-RES ovarian
SK-MEL-5 melanoma = system: SK-MEL-5 melanoma
K-562 leukemia = system: K-562 leukemia
HCC-2998 colon = system: HCC-2998 colon
MDA-MB-435 = system: MDA-MB-435
RPMI-8226 leukemia = system: RPMI-8226 leukemia
HOP-92 NSCLC = system: HOP-92 NSCLC
OVCAR-8 ovarian = system: OVCAR-8 ovarian
HL-60(TB) leukemia = system: HL-60(TB) leukemia
SNB-19 CNS = system: SNB-19 CNS
HOP-18 NSCLC = system: HOP-18 NSCLC
HOP-62 NSCLC = system: HOP-62 NSCLC
OVCAR-3 ovarian = system: OVCAR-3 ovarian
XF 498 CNS = system: XF 498 CNS
P388/ADR leukemia = system: P388/ADR leukemia
MOLT-4 leukemia = system: MOLT-4 leukemia
NCI-H23 lung = system: NCI-H23 lung
SNB-75 CNS = system: SNB-75 CNS
A549 NSCLC = system: A549 NSCLC
SN12C renal = system: SN12C renal
SF-539 CNS = system: SF-539 CNS

In the case of `CN1CCN(c2ccc3nc(-c4ccc5nc(-c6ccc(O)cc6)[nH]c5c4)[nH]c3c2)CC1`, the GI50 (SK-MEL-28 melanoma) is reported as 18.8 µM, the TGI (SK-MEL-28 melanoma) is reported as 92.3 µM and the TGI (DU-145 prostate) is reported as 526 µM. The TGI (U251 CNS) was 799 µM, the GI50 (SR leukemia) was 4.53 µM and the TGI (SR leukemia) was 2000 µM. The TGI (UACC-257 melanoma) was 188 µM, the TGI (SK-OV-3 ovarian) was 948 µM and the TGI (DMS 114 small cell lung) was 483 µM. For the same compound, the TGI (SNB-78 CNS) was 638 µM, the GI50 (UO-31 renal) was 10.6 µM and the TGI (UO-31 renal) was 938 µM. The GI50 (MCF7 breast) was 5.33 µM, the TGI (MCF7 breast) was 422 µM and the TGI (CAKI-1 renal) was 306 µM. The GI50 (NCI-H522 lung) was 4.47 µM and 3.05 µM, the TGI (NCI-H522 lung) was 65.5 µM and 202 µM and the TGI (MDA-MB-231 breast) was 639 µM. The GI50 (CCRF-CEM leukemia) was 12.9 µM (2×) and 15.4 µM, the TGI (CCRF-CEM leukemia) was 381 µM and the GI50 (MALME-3M melanoma) was 3.29 µM. For the same compound, the TGI (MALME-3M melanoma) was 62.5 µM, the TGI (BT-549 breast) was 715 µM and the GI50 (UACC-62 melanoma) was 14 µM and 86.9 µM and 28 µM. It also gave a TGI (UACC-62 melanoma) of 118 µM, a GI50 (EKVX NSCLC) of 257 µM and a TGI (EKVX NSCLC) of 489 µM. For the same compound, the GI50 (COLO 205 colon) was 6.24 µM and 19.5 µM and 6.78 µM, the TGI (COLO 205 colon) was 147 µM and the TGI (OVCAR-5 ovarian) was 679 µM. The TGI (HT29 colon) was 295 µM, the GI50 (T-47D breast) was 4.32 µM and 14.2 µM and the TGI (T-47D breast) was 153 µM. The TGI (HCT-15 colon) was 736 µM, the TGI (M14 melanoma) was 493 µM and the GI50 (NCI-H460 lung) was 349 µM. It also gave a TGI (NCI-H460 lung) of 714 µM, a TGI (KM20L2 colon) of 1160 µM and a TGI (LOX IMVI melanoma) of 553 µM. The TGI (IGROV1 ovarian) was 436 µM, the GI50 (MDA-N) was 8.77 µM and the TGI (MDA-N) was 354 µM. It also gave a TGI (P388 leukemia) of 439 µM, a TGI (OVCAR-4 ovarian) of 609 µM and a TGI (PC-3 prostate) of 1150 µM. It also gave a TGI (ACHN renal) of 666 µM, a TGI (SW-620 colon) of 959 µM and a TGI (NCI-H226 lung) of 792 µM. For the same compound, the TGI (A498 renal) was 763 µM, the TGI (DLD-1 colon) was 487 µM and the GI50 (HCT-116 colon) was 5.66 µM and 30.5 µM. It also gave a TGI (HCT-116 colon) of 512 µM, a TGI (SN12K1 renal) of 552 µM and a TGI (M19-MEL melanoma) of 283 µM. For the same compound, the TGI (DMS 273 small cell lung) was 158 µM, the TGI (786-0 renal) was 941 µM and the GI50 (SF-268 CNS) was 28.6 µM and 45.4 µM. It also gave a TGI (SF-268 CNS) of 717 µM, a GI50 (SF-295 CNS) of 380 µM and a TGI (SF-295 CNS) of 678 µM. The TGI (KM12 colon) was 678 µM, the TGI (RXF 393 renal) was 529 µM and the GI50 (SK-MEL-2 melanoma) was 198 µM. The TGI (SK-MEL-2 melanoma) was 578 µM, the TGI (TK-10 renal) was 1300 µM and the TGI (NCI/ADR-RES ovarian) was 786 µM. For the same compound, the GI50 (SK-MEL-5 melanoma) was 97.9 µM, the TGI (SK-MEL-5 melanoma) was 158 µM and the GI50 (K-562 leukemia) was 12.7 µM and 6.04 µM. For the same compound, the TGI (K-562 leukemia) was 470 µM, the TGI (HCC-2998 colon) was 1080 µM and the GI50 (MDA-MB-435) was 41.7 µM. The TGI (MDA-MB-435) was 217 µM, the GI50 (RPMI-8226 leukemia) was 183 µM and the TGI (RPMI-8226 leukemia) was 648 µM. The TGI (HOP-92 NSCLC) was 169 µM, the GI50 (OVCAR-8 ovarian) was 173 µM and the TGI (OVCAR-8 ovarian) was 539 µM. The GI50 (HL-60(TB) leukemia) was 9.03 µM and 24.3 µM, the TGI (HL-60(TB) leukemia) was 148 µM and the TGI (SNB-19 CNS) was 909 µM. The TGI (HOP-18 NSCLC) was 556 µM, the TGI (HOP-62 NSCLC) was 1040 µM and the GI50 (OVCAR-3 ovarian) was 13.5 µM and 59.5 µM and 10.1 µM. It also gave a TGI (OVCAR-3 ovarian) of 43.1 µM, a TGI (XF 498 CNS) of 116 µM and a TGI (P388/ADR leukemia) of 725 µM. For the same compound, the GI50 (MOLT-4 leukemia) was 37.2 µM and 39.4 µM, the TGI (MOLT-4 leukemia) was 482 µM and the TGI (NCI-H23 lung) was 531 µM. The TGI (SNB-75 CNS) was 619 µM, the TGI (A549 NSCLC) was 756 µM and the TGI (SN12C renal) was 464 µM. It also gave a TGI (SF-539 CNS) of 237 µM.
